Test [1] concerns the target T1, cyclooxygenase-2 (human osteosarcoma 143 cells) (Homo sapiens, UniProt P35354).
T1 construct: human osteosarcoma 143 cells (which specifically express cyclooxygenase-2); endogenous in cells; host or cells: human osteosarcoma 143 cells
T1 sequence (P35354 18-604): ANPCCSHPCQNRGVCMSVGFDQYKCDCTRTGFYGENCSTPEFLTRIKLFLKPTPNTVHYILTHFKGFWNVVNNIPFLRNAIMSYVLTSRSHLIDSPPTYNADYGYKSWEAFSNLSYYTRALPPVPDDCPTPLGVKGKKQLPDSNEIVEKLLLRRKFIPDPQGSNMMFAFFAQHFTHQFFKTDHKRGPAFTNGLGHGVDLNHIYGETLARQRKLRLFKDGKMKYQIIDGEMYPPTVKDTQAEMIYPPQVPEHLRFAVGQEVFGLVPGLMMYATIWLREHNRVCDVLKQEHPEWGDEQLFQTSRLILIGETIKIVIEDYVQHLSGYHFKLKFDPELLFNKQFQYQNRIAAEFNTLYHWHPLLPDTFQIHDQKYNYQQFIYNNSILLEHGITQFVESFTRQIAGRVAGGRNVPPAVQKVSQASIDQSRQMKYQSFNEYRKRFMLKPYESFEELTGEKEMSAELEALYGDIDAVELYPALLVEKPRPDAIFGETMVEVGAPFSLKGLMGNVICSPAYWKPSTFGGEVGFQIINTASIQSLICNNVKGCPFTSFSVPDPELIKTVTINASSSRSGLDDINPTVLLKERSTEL
Nature of the test: Whole cell cyclooxygenase assay, PGE2 synthesis by radioimmunoassay (COX-2). In kind it is cell-based. The following applies: read-out: Whole Cells COX-2 % inhib. The method, then:
(§1) Compounds were tested as inhibitors of cyclooxygenase activity in whole cell and microsomal cyclooxygenase assays. Both of these assays measured prostaglandin E2 (PGE2) synthesis in response to arachidonic acid, using a radioimmunoassay. Cells used for whole cell assays, and from which microsomes were prepared for microsomal assays, were human osteosarcoma 143 cells (which specifically express cyclooxygenase-2) and human U-937 cells (which specifically express cyclooxygenase-1). In these assays, 100% activity is defined as the difference between prostaglandin E2 synthesis in the absence and presence-of arachidonate addition.

In test [2] the target is T2, cyclooxygenase-2 (microsomes of human osteosarcoma 143 cells) (Homo sapiens, UniProt P35354).
T2 construct: from which microsomes were prepared for microsomal assays, were human osteosarcoma 143 cells; endogenous in cells; host or cells: microsomes of human osteosarcoma 143 cells
T2 sequence (P35354 18-604): T1 sequence (P35354 18-604)
Nature of the test: Microsomal cyclooxygenase assay (COX-2). It is filed as biochemical. The following applies: Conc. 100 nM; read-out: Microsomes COX-2 % inhib. The method, then:
as §1

Test [3] has as its target T3, cyclooxygenase-1 (microsomes of human U-937 cells) (Homo sapiens, UniProt P23219).
T3 construct: human U-937 cells (which specifically express cyclooxygenase-1); endogenous in cells; host or cells: microsomes of human U-937 cells
Kind of test: Microsomal cyclooxygenase assay (COX-1). The following applies: Conc. 100 nM; read-out: Microsomes COX-1 % inhib. It is filed as biochemical. The method, then:
as §1

T3 sequence (P23219 24-599): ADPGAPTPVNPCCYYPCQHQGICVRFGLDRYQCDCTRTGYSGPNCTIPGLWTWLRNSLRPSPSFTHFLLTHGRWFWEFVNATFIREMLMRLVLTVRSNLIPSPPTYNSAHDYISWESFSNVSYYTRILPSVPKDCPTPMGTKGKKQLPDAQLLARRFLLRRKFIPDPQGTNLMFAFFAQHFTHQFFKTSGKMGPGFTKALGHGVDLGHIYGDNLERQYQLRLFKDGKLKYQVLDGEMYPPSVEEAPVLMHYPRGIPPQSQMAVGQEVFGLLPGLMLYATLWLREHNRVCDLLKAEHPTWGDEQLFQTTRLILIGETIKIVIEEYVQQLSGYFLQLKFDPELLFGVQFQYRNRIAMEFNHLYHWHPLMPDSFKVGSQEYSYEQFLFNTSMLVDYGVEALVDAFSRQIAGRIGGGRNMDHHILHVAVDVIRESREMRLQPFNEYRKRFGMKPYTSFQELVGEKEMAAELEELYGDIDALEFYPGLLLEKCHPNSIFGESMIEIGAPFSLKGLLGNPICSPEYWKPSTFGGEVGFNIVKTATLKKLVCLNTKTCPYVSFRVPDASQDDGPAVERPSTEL

With `CS(=O)(=O)c1ccc(C2=C(c3ccc(F)cc3)C(=O)OC2)cc1` [Example 9, 3-(4-Fluorophenyl)-4-(4-(methylsulfonyl)phenyl)-2-(5H)-furanone], the values for the inhibition at 0.1 µM in test [1], in test [2] and in test [3] were 83%, 37% and 9%, respectively.

For the origin of these results see patent US6486194B2, “Use of inhibitors of cyclooxygenase in the treatment of neurodegenerative diseases” (Merck Frosst Canada, Inc., priority 1993, dated 2002).
